What all share (format): in vivo
Test [1] relates to corn (Zea mays). As to the kind of experiment: Test E greenhouse herbicide test, pre- and postemergence. The text has this: (§1) Seeds of plant species selected from corn (Zea mays), soybean (Glycine max), velvetleaf (Abutilon theophrasti), lambsquarters (Chenopodium album), wild poinsettia (Euphorbia heterophylla), pigweed, palmer (palmer pigweed, Amaranthus palmeri), waterhemp (common waterhemp, Amaranthus rudis), surinam grass (Brachiaria decumbens), crabgrass, large (large crabgrass, Digitaria sanguinalis), crabgrass, Brazilian (Brazilian crabgrass, Digitaria horizontalis), panicum, fall (fall panicum, Panicum dichotomiflorum), foxtail, giant (giant foxtail, Setaria faberii), foxtail, green (green foxtail, Setaria viridis), goosegrass (Eleusine indica), johnsongrass (Sorghum halepense), ragweed (common ragweed, Ambrosia elatior), barnyardgrass (Echinochloa crus-galli), sandbur (southem sandbur, Cenchrus echinatus), arrowleaf sida (Sida rhombifolia), Italian ryegrass (Lolium multiflorum), dayflower (Virginia (VA) dayflower, Commelina virginica), field bindweed (Convolvulus arvensis), momingglory (Ipomoea coccinea), nightshade (eastern black nightshade, Solanum ptycanthum), kochia (Kochia scoparia), nutsedge, yellow (yellow nutsedge, Cyperus esculentus), horseweed (Conyza canadensis), and beggarticks (hairy beggarticks, Bidens pilosa), were planted into a silt loam soil and treated preemergence with test chemicals formulated in a non-phytotoxic solvent mixture which included a surfactant.
(§2) At the same time, plants from these crop and weed species and also waterhemp_RES1, (ALS & Triazine resistant common waterhemp, Amaranthus rudis), and waterhemp_RES2, (ALS & HPPD resistant common waterhemp, Amaranthus rudis) were planted in pots containing Redi-Earth® planting medium (Scotts Company, 14111 Scottslawn Road, Marysville, Ohio 43041) comprising spaghnum peat moss, vermiculite, wetting agent and starter nutrients were treated with postemergence applications of test chemicals formulated in the same manner. Plants ranged in height from 2 to 18 cm for postemergence treatments (1- to 4-leaf stage). Treated plants and controls were maintained in a greenhouse for 14 to 21 d, after which time all species were compared to controls and visually evaluated. Plant response ratings, summarized in Table E, are based on a scale of 0 to 100 where 0 is no effect and 100 is complete control. A dash (-) response means no test result.

Test [2] relates to crabgrass, Brazilian (Brazilian crabgrass, Digitaria horizontalis). The test is described as above.
Source text: as §1, §2

The test system of test [3] is soybean (Glycine max). Described as above.
Source text: as §1, §2

Test [4] has as its system waterhemp (common waterhemp, Amaranthus rudis). The test is described as above.
Source text: as §1, §2

Test [5] relates to bluegrass (annual bluegrass, Poa annua). As to the kind of experiment: Test D controlled growth environment herbicide test, pre- and postemergence. In short, it runs like this:
(§3)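 Species sown in silt loam and sprayed preemergence, or grown in peat-based medium to 2–18 cm (1- to 4-leaf stage) and sprayed postemergence, with compounds in non-phytotoxic solvent plus surfactant. Visual injury scored versus controls after 14–21 d in a controlled environment, 0 (no effect) to 100 (complete control).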

Test [6] has as its system bromegrass, downy (downy bromegrass, Bromus tectorum). The test is described as above. To be noted: for Bromegrass, Downy plant response rating / Plant response rating (scale of 0 to 100), Bromegrass, Downy: 31 g ai/ha. In outline: as §3
Test [7] deals with ryegrass, Italian (Italian ryegrass, Lolium multiflorum). Described as above. To be noted: for Ryegrass, Italian plant response rating / Plant response rating (scale of 0 to 100), Ryegrass, Italian: 31 g ai/ha. In outline: as §3
Test [8] concerns speedwell (bird's-eye speedwell, Veronica persica). Described as above. To be noted: for Speedwell plant response rating / Plant response rating (scale of 0 to 100), Speedwell: 31 g ai/ha. In short, it runs like this: as §3
Setting [9] is: 62 g ai/ha, Preemergence, scale 0 to 100 (0 no effect, 100 complete control).
Where [10] appears, read: Preemergence, 31 g ai/ha, scale 0 to 100, 0 no effect, 100 complete control.
Where [11] appears, read: Preemergence, 125 g ai/ha, visual, scale 0 no effect to 100 complete control.
Setting [12] is: Preemergence, 250 g ai/ha, visual, scale 0 no effect to 100 complete control.
Setting [13] is: 125 g ai/ha, Preemergence, scale 0 to 100 (0 no effect, 100 complete control).
Where [14] appears, read: Postemergence, 31 g ai/ha, scale 0 to 100 (0 no effect, 100 complete control).
Setting [15] is: Postemergence, 125 g ai/ha, visual rating on scale 0 (no effect) to 100 (complete control), 14 to 21 d.
Where [16] appears, read: Postemergence, 250 g ai/ha, scale 0 to 100 (0 no effect, 100 complete control).
Setting [17] is: Preemergence, 62 g ai/ha, scale 0 to 100 (0 no effect, 100 complete control).
Where [18] appears, read: Preemergence, 125 g ai/ha, scale 0 to 100 (0 no effect, 100 complete control).
The mark [19] stands for this setting: Preemergence, 250 g ai/ha, scale 0 to 100, 0 no effect, 100 complete control.
Where [20] appears, read: postemergence, 62 g ai/ha, scale 0 to 100, 0 no effect, 100 complete control.
Where [21] appears, read: Postemergence, scale 0 to 100 (0 no effect, 100 complete control).
Where [22] appears, read: 62 g ai/ha, Postemergence, scale 0 to 100 (0 no effect, 100 complete control).
[23] abbreviates: 125 g ai/ha, Postemergence, scale 0 to 100 (0 no effect, 100 complete control).
[24] abbreviates: Postemergence, 16 g ai/ha, visual, scale 0 no effect to 100 complete control.
[25] abbreviates: Postemergence, 31 g ai/ha, visual, scale 0 no effect to 100 complete control.

As to `Cc1ccc2ccccc2c1-c1c(O)c(I)nn(C)c1=O` [Compound 29], the “Plant response rating, Corn” value in test [1] (setting [9]), in test [1] (setting [10]), in test [1] (setting [11]) and in test [1] (setting [12]) was 0 in each case. The “Plant response rating, Crabgrass, Brazil” value in test [2] (setting [9]) is given as 75; in test [2] (setting [10]) it was 30; in test [2] (setting [11]), 70; in test [2] (setting [12]), 90. The “Plant response rating, Soybean” value in test [3] (setting [9]) was found to be 50; in test [3] (setting [13]), 70; in test [3] (setting [10]), 70; in test [3] (setting [12]), 50. Besides, the “Plant response rating, Waterhemp” value in test [4] (setting [9]) is 90; in test [4] (setting [13]) it was 98; in test [4] (setting [10]), 80; in test [4] (setting [12]), 100.

Turning to `Cc1nn(C)c(=O)c(-c2c(C)sc3ccc(Br)cc23)c1O` [Compound 22], the “Bluegrass plant response rating” value worked out at 10 in test [5] (setting [14]) and 40 in test [5] (setting [19]). Besides, the “Plant response rating, Bluegrass” value in test [5] (setting [15]) is on record as 25; in test [5] (setting [16]), 25; in test [5] (setting [17]), 30; in test [5] (setting [18]), 30; in test [5] (setting [20]) it was 15. The “Plant response rating (scale of 0 to 100), Bluegrass” value in test [5] (Preemergence, 31 g ai/ha) stood at 0. Besides, the “Bromegrass, Downy plant response rating” value in test [6] (setting [21]) is listed as 10. Moreover, the “Plant response rating, Bromegrass, Downy” value amounted to 25 in test [6] (setting [15]); 25 in test [6] (setting [16]); 5 in test [6] (setting [17]); 25 in test [6] (setting [18]); 80 in test [6] (setting [19]); 10 in test [6] (setting [20]). Besides, the “Plant response rating (scale of 0 to 100), Bromegrass, Downy” value in test [6] (Preemergence) was 0. Further, the “Ryegrass, Italian plant response rating” value in test [7] (setting [21]) came to 75. The “Plant response rating, Ryegrass, Italian” value in test [7] (setting [15]) is recorded as 85; in test [7] (setting [16]) it was 90; in test [7] (setting [17]), 90; in test [7] (setting [18]) it was 100; in test [7] (setting [19]), 100; in test [7] (setting [20]), 80. In test [7] (Preemergence), the “Plant response rating (scale of 0 to 100), Ryegrass, Italian” value worked out at 85. In test [8] (setting [21]), the “Speedwell plant response rating” value is listed as 60. In addition, the “Plant response rating, Speedwell” value in test [8] (setting [15]) is on record as 65; in test [8] (setting [16]) it was 100; in test [8] (setting [17]), 0; in test [8] (setting [18]), 50; in test [8] (setting [19]), 100; in test [8] (setting [20]), 60. Also, in test [8] (Preemergence), the “Plant response rating (scale of 0 to 100), Speedwell” value is reported as 0.

On to `CC(=O)Oc1c(C)nn(C)c(=O)c1-c1c(C)cc(C)c2ccccc12` [Compound 99], for which the “Plant response rating, Corn” value in test [1] (setting [22]), in test [1] (setting [23]), in test [1] (setting [24]) and in test [1] (setting [25]) was 0 each time. Also, the “Plant response rating, Crabgrass, Brazil” value in test [2] (setting [22]) amounted to 10; in test [2] (setting [23]), 20; in test [2] (setting [24]) it was 5; in test [2] (setting [25]), 10. Also, the “Plant response rating, Soybean” value is 30 in test [3] (setting [23]), 0 in test [3] (setting [24]) and 0 in test [3] (setting [25]). Also, the “Plant response rating, Waterhemp” value in test [4] (setting [23]) was determined as 75; in test [4] (setting [24]), 65; in test [4] (setting [25]), 45.

For `Cc1nn(C)c(=O)c(-c2c(C)sc3c(C)cc(Cl)cc23)c1O` [Compound 35], the “Bluegrass plant response rating” value in test [5] (setting [14]) came to 35; in test [5] (setting [19]), 45. The “Plant response rating, Bluegrass” value in test [5] (setting [15]) came out at 35; in test [5] (setting [16]), 40; in test [5] (setting [17]) it was 25; in test [5] (setting [18]), 35; in test [5] (setting [20]), 25. The “Plant response rating (scale of 0 to 100), Bluegrass” value in test [5] (Preemergence, 31 g ai/ha) turned out to be 25. Also, in test [6] (setting [21]), the “Bromegrass, Downy plant response rating” value came to 5. Moreover, the “Plant response rating, Bromegrass, Downy” value in test [6] (setting [15]) was determined as 25; in test [6] (setting [16]) it was 30; in test [6] (setting [17]) it was 30; in test [6] (setting [18]) it was 55; in test [6] (setting [19]), 65; in test [6] (setting [20]) it was 25. Moreover, the “Plant response rating (scale of 0 to 100), Bromegrass, Downy” value in test [6] (Preemergence) is on record as 20. Further, the “Ryegrass, Italian plant response rating” value in test [7] (setting [21]) turned out to be 65. For the same molecule, the “Plant response rating, Ryegrass, Italian” value in test [7] (setting [15]) is on record as 80; in test [7] (setting [16]) it was 90; in test [7] (setting [17]) it was 85; in test [7] (setting [18]) it was 100; in test [7] (setting [19]), 100; in test [7] (setting [20]), 75. In addition, the “Plant response rating (scale of 0 to 100), Ryegrass, Italian” value in test [7] (Preemergence) worked out at 75. Further, the “Speedwell plant response rating” value in test [8] (setting [21]) was 70. The “Plant response rating, Speedwell” value in test [8] (setting [15]) turned out to be 80; in test [8] (setting [16]) it was 100; in test [8] (setting [17]), 75; in test [8] (setting [18]), 100; in test [8] (setting [19]), 100; in test [8] (setting [20]) it was 75. For the same molecule, in test [8] (Preemergence), the “Plant response rating (scale of 0 to 100), Speedwell” value is recorded as 0.

For `Cc1ccc2ccccc2c1-c1c(O)c(Br)nn(C)c1=O` [Compound 23], the “Plant response rating, Bluegrass” value in test [5] (setting [15]) is 35; in test [5] (setting [16]), 40; in test [5] (setting [20]), 35. In addition, the “Plant response rating, Bromegrass, Downy” value in test [6] (setting [15]) amounted to 60; in test [6] (setting [16]) it was 75; in test [6] (setting [20]), 45. Besides, the “Plant response rating, Ryegrass, Italian” value in test [7] (setting [15]) came to 85; in test [7] (setting [16]), 85; in test [7] (setting [20]), 80. Besides, the “Plant response rating, Speedwell” value in test [8] (setting [15]) came to 75; in test [8] (setting [16]), 95; in test [8] (setting [20]), 100.
